Assay results taken from US4575459A, “Toxoids of elastase of Pseudomonas aeruginosa origin” (Toho Yakuhin Kogyo Kabushiki Kaisha, priority 1984, dated 1986).
Where “and” joins values, the source holds several entries; their conditions need not be identical. Identical values can stand only once.

Assays:
Casein = assay: Proteinase activity on casein (Folin's method), specific activity in mPU; type: biochemical
Procedure: In Examples 1 and 2, the term "mPU/ml protein of a specific activity" signifies the proteinase activity determined by the following procedure:
Casein (2%, pH 7.4, 1 ml) is admixed with 1 ml of an appropriately diluted solution of an enzyme, and after a reaction at 40° C. for 10 minutes, 2.0 ml of a solution containing 0.1M trichloroacetic acid and 0.2M sodium acetate is immediately added for stopping a progress of the reaction. The mixture is kept at the same temperature for 20 minutes to precipitate unreacted casein completely and is filtered. 1 ml of the filtrate is subject to determination of tyrosine therein contained by the Folin's method. By the increase of 1γ of tyrosine per 1 minute, a proteinase activity of 1 mPU is to be indicated. 1 mPU×1,000 is equal to 1 PU.

[1] = Antigenic activity of formalin-treated elastase samples by precipitation line (Table 1); type: binding; details: quantity of antigen per dilution volume until a precipitation line first becomes visible; larger numeral = less potent
Text: Note: In the above Table 1, the antigenic activity is expressed by a unit of μg/ml, wherein the numerator indicates the quantity of antigen and the denominator indicates the dilution volume required until a precipitation line first becomes visible.

rabbits [2] = assay: Antigenicity test on rabbits, Test B: precipitation in agar-gel test; type: in vivo, rabbit; details: 22° C., 24 hours, dilution at which precipitation line first becomes observable, individual rabbits
Procedure: (§1) Method: Three rabbits, each having 2.5 Kg of a body weight, were subcutaneously inoculated with each 1 mg of Toxoid I together with Freund's incomplete adjuvant and the inoculation was repeated 3 to 4 times at an interval of 2 weeks. On the day of two weeks after the last inoculation, blood was collected from the rabbits and was availed for following Tests A, B and C. The same method as the preceeding was conducted employing Toxoid II.
In 0.01M phosphate buffer-normal saline solution (pH 7.0) which contained 0.1% of sodium azide, agarose was dissolved to form a concentration of 1.5% by weight, and 10 ml of the solution were poured in a dish having 9 cm of a diameter and the solution was left to make the agar hard. Several holes were made on the hardened agar and antigens or antisera were separately poured into every hole and the agar was left at 22° C. for 24 hours long, then, the existence of a precipitation line was inspected. The concentration of antigens is expressed by a unit of μg/ml, wherein the numerator indicates a quantity of antigens and a denominator indicates the dilution volume which is required until a precipitation line will first becomes observable.

[3] = Antigenic activity listed among the identified properties of the toxoids; details: listed property
rabbits [4] = assay: Antigenicity test on rabbits, Test A: passive hemagglutinative value test (PHA test); type: in vivo, rabbit; details: reciprocal of serum dilution; individual rabbits, 1 mg s.c. with Freund's incomplete adjuvant 3 to 4 times, blood two weeks after last inoculation
Procedure: as §1
(§2) The values were determined according to a method described by one of the present inventors, Y. Homma, in The Japan J. Exp. Med., Vol. 45, No. 5, pages 361-365 (1975), and the values were expressed as a reciprocal number to a multiplied number of the dilution of sera.

rabbits [5] = assay: Antigenicity test on rabbits, Test C: elastase-neutralizing activity test of sera; type: in vivo, rabbit; details: elastase activity neutralized by 1 ml of anti-serum; individual rabbits
Procedure: as §1
(§3) Sera of the tested rabbits were warmed at 56° C. for 30 minutes and 0.2 ml of the sera were added to 0.2 ml of elastase solution, to which normal saline solution was added up to a volume of 2 ml in total. The solution was left for 60 minutes at 37° C., then, 1 ml of 2% casein solution was added to 1 ml of the solution. The residual elastase activity was determined with the thus mixed solution.

ddY mice [6] = assay: PHA value on mice; type: in vivo, mouse; details: 50 μg with potassium alum three times, first and second collected bloods (just before and 14th day after third inoculation)
Procedure: as §2
(§4) To a solution of Toxoid I of this invention in a concentration of 0.5 mg/ml., an equal volume of 1% potassium alum solution was added. Each 0.2 ml of the solution, in which 50 μg of Toxoid I were contained, were inoculated into ddY mice of 4 weeks old respectively three times at an interval of 2 weeks. At just before and on the 14th day after the third inoculation, bloods were collected from each mouse and the values of PHA and elastase-neutralizing activity were inspected in the same manner as with Tests A and C in Experiment 1.

ddY mice [7] = assay: Elastase-neutralizing activity on mice; type: in vivo, mouse
Procedure: as §3, §4

[8] = tested on: Pseudomonas aeruginosa elastase; details: incubation of the reagent with the enzyme; Nishino and Powers, J. Biol. Chem. (1980); cited from earlier work

crystalline elastase: purified crystalline elastase obtained from Pseudomonas aeruginosa, raw material of the toxoids
Residual Proteinase Activity (%) (Casein; elastase samples treated with formalin (HCHO), Table 1): 100% | Antigenic activity [1]: 30 µg/mL | Antigen Concentration (rabbits [2]): 15 µg/mL

Toxoid I: toxoid prepared by inactivating Pseudomonas aeruginosa elastase with the Powers Reagent
specific activity (Casein; casein 2%, pH 7.4, 40° C., 10 minutes): 0.06 mPU/mg protein | Enzymatic activity (Casein; listed property): Negative | Antigenic activity [3]: Positive | PHA Value (rabbits [4]): 5120 and 2560 | Antigen Concentration (rabbits [2]): 15 µg/mL | Elastase-neutralizing Activity (mPU/ml) (rabbits [5]): 15 mPU/ml and 12 mPU/ml and 10 mPU/ml | PHA Value (ddY mice [6]): 640 | elastase-neutralizing activity (ddY mice [7]; first collected blood (just before third inoculation)): 1.52 mPU/ml | elastase-neutralizing activity (ddY mice [7]; second collected blood (14th day after third inoculation)): 1.83 mPU/ml

CC(C)C[C@@H](C(=O)N[C@@H](C)C(=O)NCC(N)=O)N(O)C(=O)CCl [Powers Reagent, chloroacetyl-N-hydroxy-L-leucyl-L-alanylglycinamide]
effect on enzyme activity of elastase [8]: progressive loss of enzyme activity
